Data from paper PMC3404088, “Development of a Small D-Enantiomeric Alzheimer’s Amyloid-β Binding Peptide Ligand for Future In Vivo Imaging Applications” (PLoS ONE, 2012).
Square brackets hold non-standard residues; d marks the D form. Peptide text beside a SMILES is read from it. * marks the point of attachment. 5FAM = O=C1OC2(c3ccc(O)cc3Oc3cc(O)ccc32)c2ccc(C(=O)*)cc21

Each molecule was assayed against T1, Aβ1–42 monomers (Homo sapiens, UniProt P05067) (assay: ELISA, compound binding to Aβ1–42 peptide film (predominantly monomers)). Settings: 10 µg/ml compound; optical density after pNPP incubation; value of one single experiment only.
T1 construct: Aβ1–42 peptide film was prepared from lyophilized powder (Bachem); purchased Bachem
Description: Aβ1–42 peptide film was prepared from lyophilized powder (Bachem). The powder was reconstituted in HFIP to a final concentration of 1 mM, sonicated for 15 min at room temperature (RT), agitated overnight (ON), and aliquoted into non-siliconized microcentrifuge tubes (12 µl corresponding to 55 µg). The HFIP was evaporated under a stream of argon. The resulting peptide film was vacuum dried for 10 min and stored at -80°C. For direct use as peptide film, an aliquot of Aβ1–42 peptide film was reconstituted with 0.54% dimethylsulphoxide (DMSO) in phosphate buffered saline (PBS) to obtain a final concentration of 10 µg/ml and then used for the ELISA as described below. To prepare fibrils, 55 µg aliquot of peptide film was dissolved in 55 µl of 50 mM Tris-HCl, pH 7.4 and incubated at 37°C for five days. Next, the sample was centrifuged (10’000 rpm for 5 min) and the pellet was diluted in 50 mM Tris-HCl, pH 7.4.
Aβ1–42 peptide preparations were diluted in 0.05 M bicarbonate-carbonate buffer pH 9.6, to the final concentration of 10 µg/ml and coated onto ELISA plates (MaxiSorp, Nunc). After blocking (PBS; 0.05% Tween; 1% BSA), plates were incubated with 2- or 3-fold dilutions of D-compounds (starting concentration: 10 µg/ml) and incubated for 2 h at 37°C. Plates were then washed and incubated for 2 h at 37°C with the detection antibody Rabbit-a-fluorescein isothiocyanate-AP (Sigma; 1∶10’000 dilution) followed by the incubation for 2.5 h at room temperature (RT) with 1 mg/ml of phosphatase substrate (pNPP, Sigma). The absorbance signal was read at 405 nm wavelength using a Tecan plate reader (Tecan Group Lt, Männedorf, Switzerland).
ELISA plates (MaxiSorp, Nunc) were coated with anti-Aβ antibody 6E10 (Covance) at a concentration of 5 µg/ml. Either monomeric Aβ1–42 peptide film (mainly monomeric) or Aβ1–42 fibrils, which were prepared as described above, were diluted in PBS to the final concentration 10 µg/ml and mixed with 10-fold dilutions of D-peptide compounds in Eppendorf tubes (starting concentration of D-peptide compounds: 10 µg/ml). The tubes were incubated for 2 h at 37°C. Next, samples were distributed onto the ELISA plate and kept for 2 h at 37°C. Plates were washed and incubated for 2 h at 37°C with the detection antibody Rabbit-a-fluorescein isothiocyanate-AP (Sigma; 1∶10′000 dilution) following the incubation overnight (ON) at RT with 1 mg/ml of phosphatase substrate (pNPP, Sigma). The absorbance signal was read at 405 nm wavelength using the Tecan plate reader (Tecan Group Ltd, Männedorf, Switzerland).
To verify the SPR results, ELISA was employed to assay the interaction of the ACI-80 derivatives ACI-80-Kϕ, ACI-81-Kϕ, ACI-82-Kϕ, ACI-83-Kϕ, ACI-84-Kϕ, ACI-85-Kϕ, ACI-86-Kϕ, ACI-87-Kϕ, [^19F]-ACI-87-Kϕ, ACI-88-Kϕ, [^19F]-ACI-88-Kϕ, ACI-89-Kϕ, [^19F]-ACI-89-Kϕ) with Aβ1–42 fibrils and Aβ peptide film in solution containing mostly monomers and smaller oligomers (Table 4). To avoid any bias by possible conformational influences the ELISA has been carried out in two versions, once with immobilized antibody and once with immobilized Aβ1–42 as described in the methods section. Both assays yielded similar results and confirmed each other. […] Panels A and B in Figure 2 show the results for binding to Aβ1–42 fibrils and panels C and D in Figure 2 show the results for binding to freshly prepared Aβ1–42 peptide film, which contains mostly monomeric Aβ. In Table 4, the performance of the peptides is expressed relative to that of ACI-80-Kϕ.

T1 sequence (P05067 672-713 limits assumed): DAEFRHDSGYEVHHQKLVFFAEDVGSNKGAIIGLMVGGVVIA

binding value, binding Aβ1–42 monomers | SMILES
*1.06 | CC[C@@H](C)[C@@H](NC(=O)[C@@H](Cc1c[nH]cn1)NC(=O)[C@@H](CCCNC(=N)N)NC(=O)[C@@H](Cc1ccc(O)cc1)NC(=O)[C@@H](Cc1c[nH]cn1)NC(=O)[C@@H](CO)NC(=O)[C@H]1CCCN1)C(=O)N[C@H](CO)C(=O)N1CCC[C@@H]1C(=O)N[C@H](C)C(=O)N[C@H](CCC(N)=O)C(=O)N[C@H](CCCCN)C(=O)N[C@H](CCCCNC(=O)c1ccc2c(c1)C(=O)OC21c2ccc(O)cc2Oc2cc(O)ccc21)C(=O)O [ACI-89-Kϕ] (H-[dP][dS][dH][dY][dR][dH][dI][dS][dP][dA][dQ][dK][dK](5FAM)-OH; N-terminus and C-terminus assumed)
*1.29 | CC[C@@H](C)[C@@H](NC(=O)[C@@H](Cc1c[nH]cn1)NC(=O)[C@@H](CCCNC(=N)N)NC(=O)[C@@H](Cc1ccc(O)cc1)NC(=O)[C@@H](Cc1c[nH]cn1)NC(=O)[C@H](N)CO)C(=O)N[C@H](CO)C(=O)N1CCC[C@@H]1C(=O)N[C@H](C)C(=O)N[C@H](CCC(N)=O)C(=O)N[C@H](CCCCN)C(=O)N[C@H](CCCCNC(=O)c1ccc2c(c1)C(=O)OC21c2ccc(O)cc2Oc2cc(O)ccc21)C(=O)O [ACI-88-Kϕ] (H-[dS][dH][dY][dR][dH][dI][dS][dP][dA][dQ][dK][dK](5FAM)-OH; N-terminus and C-terminus assumed)
*0.79 | CC[C@@H](C)[C@@H](NC(=O)[C@@H](Cc1c[nH]cn1)NC(=O)[C@@H](CCCNC(=N)N)NC(=O)[C@@H](Cc1ccc(O)cc1)NC(=O)[C@@H](Cc1c[nH]cn1)NC(=O)[C@@H](CO)NC(=O)[C@H](N)CCC(N)=O)C(=O)N[C@H](CO)C(=O)N1CCC[C@@H]1C(=O)N[C@H](C)C(=O)N[C@H](CCC(N)=O)C(=O)N[C@H](CCCCN)C(=O)N[C@H](CCCCNC(=O)c1ccc2c(c1)C(=O)OC21c2ccc(O)cc2Oc2cc(O)ccc21)C(=O)O [ACI-87-Kϕ] (H-[dQ][dS][dH][dY][dR][dH][dI][dS][dP][dA][dQ][dK][dK](5FAM)-OH; N-terminus and C-terminus assumed)
